In PMC9416494, “Cinnamaldehyde and Curcumin Prime Akt2 for Insulin-Stimulated Activation” (Nutrients, 2022):
Like-named read-outs stand apart in the source and are kept apart here.

Tests used:
Akt2 = assay: cIEF immunoassay of Akt2 and p-Akt2 (S474) in primary human subcutaneous preadipocytes; type: cell-based; conditions: for change of Akt2 cIEF electropherogram versus untreated control / p-Akt2 (S474) induction / change of Akt2 cIEF electropherogram versus insulin alone / increase of p-Akt2 (S474) compared to insulin treatment alone: 30 min; for change of Akt2 cIEF electropherogram versus untreated control: insulin 100 nM; for change of Akt2 cIEF electropherogram versus untreated control / p-Akt2 (S474) induction / increase of p-Akt2 (S474) compared to insulin treatment alone: cinnamaldehyde 40 µM, curcumin 20 µM; for change of Akt2 cIEF electropherogram versus untreated control / p-Akt2 (S474) induction: okadaic acid 5 nM, PTP1Bi 4 µM; for p-Akt2 (S474) induction: treatment without added insulin (insulin itself 100 nM); for change of Akt2 cIEF electropherogram versus insulin alone / increase of p-Akt2 (S474) compared to insulin treatment alone: together with insulin 100 nM
Experimental: (§1) Primary human subcutaneous preadipocytes were obtained from Zen-Bio (Cat. No. SP-F-1, Lot #L031219A, Durham, NC, USA) and maintained at 37 °C and 5% CO2 in growth medium comprising Minimum Essential Medium α (cat. no. 12571063, Thermo Fisher Scientific, Waltham, MA, USA) supplemented with 10% fetal bovine serum, 100 units/mL penicillin, and 100 µg/mL streptomycin. […] The donor was undergoing elective surgery and signed an Institutional Review Board validated donor consent form that specifically lists both the intended uses for non-clinical research and confirms the procedures for processing the samples are Standard Operating Procedure managed Good Laboratory Practices protocols in compliance with ethical regulations. All samples were collected and processed in the United States.
(§2) Existing growth media of primary human subcutaneous preadipocytes were replaced with new growth media premixed with treatment compounds and incubated at 37 °C and 5% CO2 for 30 min prior to the collection of total cell extracts. The final concentrations of treatment compounds were as follows: insulin (100 nM, Humulin R, Eli Lilly, Indianapolis, IN, USA), cinnamaldehyde (40 µM, cat. no. W228613, Sigma Aldrich, St. Louis, MO, USA), curcumin (20 µM, cat. no. C7727, Sigma Aldrich, St. Louis, MO, USA), okadaic acid (5 nM, cat. no. ab120375, Cambridge, MA, USA), and PTP1Bi (4 µM, cat. no. 15782, Cayman Chem, Ann Arbor, MI, USA). The concentrations of treatment compounds were selected based on their ability to induce maximal effects on the PTM profile of Akt2, which were experimentally determined.
(§3) Approximately one million cells were incubated on ice for 10 min with 60 µL of lysis buffer (cat. no. 040-764, ProteinSimple, Santa Clara, CA, USA), sonicated 4 times for 5 s each, mixed by rotation for 2 h at 4 °C, and centrifuged at 12,000 rpm in an Eppendorf 5430R microfuge for 20 min at 4 °C. The supernatant was collected as the cell lysate. The total protein concentration in the cell lysate was determined with a Bradford protein assay and adjusted to a final concentration of 0.3 µg/µL with separation gradients (cat. no. Premix G2, pH 5–8, ProteinSimple, Santa Clara, CA, USA) for charge-based cIEF immunoassays.
(§4) Cell lysates in separation gradients were loaded into 384-well assay plates (cat. no. 040-663, ProteinSimple, Santa Clara, CA, USA), which were preloaded with primary and secondary antibodies and chemiluminescent substrates. Charge-based protein separation and detection in individual capillaries were performed using the default protocols of the NanoPro 1000 system (ProteinSimple, Santa Clara, CA, USA). HSP70 was used as the loading control. All cIEF immunoassays were performed in triplicate for each protein, and triplicate experiments were performed for each treatment condition, producing nine repeated measurements per protein analyte.
(§5) Protein abundance was quantified using the Compass software from ProteinSimple (Santa Clara, CA, USA) and normalized with that of HSP70 for cIEF immunoassays or β-actin for capillary Western assays. HSP70 and β-actin served as loading controls.

Akt1 = assay: cIEF immunoassay of Akt1 in primary human subcutaneous preadipocytes; type: cell-based; conditions: for effect on Akt1 cIEF electropherogram: 30 min; for effect on insulin-stimulated phosphorylation of Akt1: with insulin, cIEF of p-Akt1 (S473) and standard Western
Experimental: as §1, §2, §3, §4, §5

Akt3 = assay: cIEF immunoassay of Akt3 in primary human subcutaneous preadipocytes; type: cell-based; conditions: for effect on Akt3 cIEF electropherogram: 30 min; for effect on insulin-stimulated phosphorylation of Akt3: with insulin
Experimental: as §1, §2, §3, §4, §5

pan-Akt [1] = assay: Capillary Western immunoassay of p-Akt in primary human subcutaneous preadipocytes; type: cell-based; conditions: insulin 30 min
Experimental: as §1, §2
The total protein concentration in the cell lysate was determined with a Bradford protein assay and adjusted to a final concentration of 0.4 µg/µL with denaturing buffers (cat. no. PS-ST01EZ or PS-ST03EZ, ProteinSimple, Santa Clara, CA, USA) for size-based Western immunoassays. […]
Protein abundance was quantified using the Compass software from ProteinSimple (Santa Clara, CA, USA) and normalized with that of HSP70 for cIEF immunoassays or β-actin for capillary Western assays. […]

PP2A = target: T1, PP2A (Homo sapiens, UniProt P67775); assay: Ser/Thr phosphatase assay (malachite green), recombinant PP2A; type: biochemical
T1 construct: purchased Cayman Chem 10011237
T1 sequence (P67775 1-308 limits assumed): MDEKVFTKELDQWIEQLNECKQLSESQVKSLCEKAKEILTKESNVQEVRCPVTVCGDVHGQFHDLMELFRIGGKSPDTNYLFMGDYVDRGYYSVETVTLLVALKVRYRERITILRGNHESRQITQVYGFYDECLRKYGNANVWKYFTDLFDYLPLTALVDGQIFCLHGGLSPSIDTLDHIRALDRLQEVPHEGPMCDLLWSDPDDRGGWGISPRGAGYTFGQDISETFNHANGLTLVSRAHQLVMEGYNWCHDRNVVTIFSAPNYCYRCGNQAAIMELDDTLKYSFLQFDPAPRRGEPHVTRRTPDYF
Experimental: (§6) Ser/Thr phosphatase assay kit (cat. no. 17-127, Millipore, Temecula, CA, USA) was used to detect PP2A activity by dephosphorylation of the phosphopeptide R-K-pT-I-R-R using malachite green detection. Likewise, a protein tyrosine phosphatase assay kit (cat. no. 17-125, Millipore, Burlington, MA, USA) was used to detect PTP1B activity by dephosphorylation of the phosphopeptide R-R-L-I-E-D-A-E-pY-A-A-R-G using malachite green detection. Experimental procedures were performed according to the manufacturer’s protocols. Recombinant PP2A (cat. no. 10011237, Cayman Chem, Ann Arbor, MI, USA) and PTP1B (cat. no. 10010896, Cayman Chem, Ann Arbor, MI, USA) were used. Dephosphorylation reactions were performed at room temperature for 30 min in the presence of serially diluted okadaic acid, PTP1Bi, cinnamaldehyde, or curcumin. The reactions were terminated by the addition of […] malachite green solution and allowed color development to proceed for 15 min at room temperature. Phosphatase activities were measured using absorbance at 650 nm in a microtiter plater reader (Synergy 2, BioTek, Winooski, VT, USA).

PTP1B = target: T2, PTP1B (Homo sapiens, UniProt P18031); assay: Protein tyrosine phosphatase assay (malachite green), recombinant PTP1B; type: biochemical; conditions: 30 min, room temperature, read-out: IC50, PTP1B inhibition
T2 construct: purchased Cayman Chem 10010896
T2 sequence (P18031 1-321 limits assumed): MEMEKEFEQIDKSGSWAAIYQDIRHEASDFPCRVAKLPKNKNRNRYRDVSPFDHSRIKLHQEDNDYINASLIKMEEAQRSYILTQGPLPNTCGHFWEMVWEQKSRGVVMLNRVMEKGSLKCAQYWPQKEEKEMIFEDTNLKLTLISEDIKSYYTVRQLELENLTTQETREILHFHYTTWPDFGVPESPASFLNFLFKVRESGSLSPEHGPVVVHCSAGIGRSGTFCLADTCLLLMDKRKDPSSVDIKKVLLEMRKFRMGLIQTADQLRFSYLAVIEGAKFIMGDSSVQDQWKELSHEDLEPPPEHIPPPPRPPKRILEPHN
Experimental: as §6

pan-Akt [2] = assay: cIEF immunoassay of pan-Akt phosphoisoforms in primary human subcutaneous preadipocytes; type: cell-based; conditions: 30 min, versus untreated control
Experimental: as §1, §2, §3, §4, §5

ERK1/2 = assay: cIEF immunoassay of ERK1/2 phosphorylation; type: cell-based, human; conditions: following treatment
Experimental: as §2
as §4, with “All cIEF immunoassays were performed in triplicate for each protein, and triplicate experiments were performed for each treatment condition, producing nine repeated measurements per protein analyte.” left out

[3] = recombinant PP2A, 30 min, room temperature, read-out: IC50, PP2A inhibition

Row | Compound | change of Akt2 cIEF electropherogram versus untreated control (Akt2) | p-Akt2 (S474) induction (Akt2) | effect on Akt1 cIEF electropherogram (Akt1) | effect on Akt3 cIEF electropherogram (Akt3) | IC50 (PP2A; [3]) [µM] | IC50 (PTP1B) [µM] | change of Akt2 cIEF electropherogram versus insulin alone (Akt2) | increase of p-Akt2 (S474) compared to insulin treatment alone (Akt2) | effect on insulin-stimulated phosphorylation of Akt1 (Akt1) | effect on insulin-stimulated phosphorylation of Akt3 (Akt3) | abundance of p-Akt (S124) at pI 5.74 (pan-Akt [2]) | abundance of p-Akt (S246) at pI 5.74 (pan-Akt [2]) | abundance of p-Akt (Y475) at pI 5.74 (pan-Akt [2]) | effect on p-Akt (T308) (pan-Akt [2]) | p-Akt (T450) phosphorylation (pan-Akt [2]) | ERK1/2 phosphorylation (ERK1/2) | further results
1 | insulin [reference compound] | pI 5.20 and 5.30 | induced the appearance of p-Akt2 (S474) | no observable effect | induced the appearance of new Akt2 and Akt3 isoforms at low pI values | – | – | – | – | – | – | – | – | – | – | – | – | abundance of p-Akt (S473) (pan-Akt [1]): increased the abundance; abundance of p-Akt (T308) (pan-Akt [1]): increased the abundance; abundance of p-Akt (T450) (pan-Akt [1]): increased the abundance
2 | O=c1cc(N2CCOCC2)oc2c(-c3ccccc3)cccc12 [LY294002, reference compound] | – | – | – | – | – | – | – | – | – | – | – | – | – | – | – | – | effect on cinnamaldehyde or curcumin-induced phosphorylation of Akt2 (Akt2; PI3K inhibitor with cinnamaldehyde or curcumin): unable to inhibit; effect on insulin-stimulated phosphorylation of Akt2 (Akt2; PI3K inhibitor with insulin): abrogates
3 | O=C/C=C/c1ccccc1 [cinnamaldehyde] | new peak at pI 5.41 | Neither untreated control preadipocytes or preadipocytes treated with cinnamaldehyde or curcumin had a detectable level | neither cinnamaldehyde or curcumin had any observable effect | neither cinnamaldehyde or curcumin had any observable effect | ~40 | ~4 | induced the appearance of a new Akt2 isoform at pI 5.15 | approximately 3.5 fold | promote insulin-stimulated phosphorylation of Akt1 | no observable effect | increased the abundance | increased the abundance | increased the abundance | no observable effect | increased phosphorylation at the T450 residue | increased ERK1/2 phosphorylation | –
4 | C=C1[C@@H](O)[C@@H]2O[C@]3(CC[C@H](/C=C/[C@@H](C)[C@@H]4CC(C)=C[C@@]5(O[C@H](C[C@@](C)(O)C(=O)O)CC[C@H]5O)O4)O3)CC[C@H]2O[C@@H]1[C@@H](O)C[C@H](C)[C@H]1O[C@@]2(CCCCO2)CC[C@H]1C [okadaic acid, reference compound] | induced the appearance of a new Akt2 isoform at pI 5.20 | Neither okadaic acid nor PTP1Bi treatment individually was capable of inducing | – | – | – | – | – | – | – | – | – | – | – | – | – | – | IC50 (PP2A): ~0.0005 µM
5 | COc1cc(/C=C/C(=O)CC(=O)/C=C/c2ccc(O)c(OC)c2)ccc1O [curcumin] | new peak at pI 5.41 | Neither untreated control preadipocytes or preadipocytes treated with cinnamaldehyde or curcumin had a detectable level | neither cinnamaldehyde or curcumin had any observable effect | neither cinnamaldehyde or curcumin had any observable effect | ~20 | ~25 | induced the appearance of a new Akt2 isoform at pI 5.15 | approximately 3.5 fold | promote insulin-stimulated phosphorylation of Akt1 | no observable effect | increased the abundance | increased the abundance | increased the abundance | no observable effect | increased phosphorylation at the T450 residue | increased ERK1/2 phosphorylation | –
